Tests used:
[1] = test system: LPS-induced acute lung injury model; assay: LPS-induced acute lung injury model, i.p. pre- and post-treatment; assay type: in vivo, C57BL/6N mice; conditions: vs vehicle-treated LPS mice
Procedure: Wild-type male C57BL/6N mice aged 8 to 10 weeks and weighing 20-24 g were purchased from Orient Bio (Seongnam, South Korea). […] Specifically, LPS (Escherichia coli, 0111: B4, Sigma) (10 μg/g) dissolved in 50 μL PBS was administered by intranasal (i.n.) inhalation. The control group received 50 μL of sterile PBS through intranasal administration. For pretreatment, YPI-A4948 dissolved in 50 μL DMSO was administered intraperitoneally (i.p) at 0.1 mg/kg, 1.0 mg/kg and 10 mg/kg, respectively, 1 hour before LPS inhalation, and for post-treatment, YPI-A4948 was administered at 0.1 mg/kg, 1.0 mg/kg, and 10 mg/kg, respectively, 12 hours after LPS inhalation. The vehicle control group was intraperitoneally administered with 50 μL DMSO at the same time point as pretreatment and post-treatment. Mice were euthanized 48 hours after LPS inhalation to remove the lungs. In addition, BALF cytospin staining and H&E lung tissue staining were performed to observe the degree of lung injury.

C57BL/6N mice = assay: Diuretic effect in mice (urine volume); assay type: in vivo; conditions: i.p. twice at 3 h interval, urine volume after 6 hours, alone
Procedure: Wild-type male C57BL/6N mice aged 8 weeks and weighing 20-24 g were purchased from Orient Bio (Seongnam, South Korea). Before the experiment, water and diet were restricted, and the bladder was stimulated to induce urine. A 100 mg/ml stock concentration of YPI-A4948 dissolved in DMSO was prepared to have final concentrations of 0.001 mg/kg/100 ul, 0.005 mg/kg/100 ul and […] mg/kg/100 ul, 0.1 mg/kg/100 ul, 0.5 mg/kg/100 ul and 1 mg/kg/100 ul (1% DMSO+DW), respectively, and injected intraperitoneally twice with an interval of 3 hours. After 6 hours, the urine volume of each group of mice was measured.

[2] = i.p. 0.1, 1.0, 10 mg/kg 1 h before and 12 h after LPS

**Q.** How did the BALF protein concentration [1, 2] turn out when Cc1ccc2[nH]c(C(=O)O)c(CC(=O)N3CCN(c4c(C)cccc4Cl)CC3)c2c1 [YPI-A4948, 3-(2-(4-(2-Chloro-6-methylphenyl)piperazin-1-yl)-2-oxoethyl)-5-methyl-1H-indole-2-carboxylic acid] was run?
**A.** significantly reduced

**Q.** What about the “BALF total cell counts” value [1, 2] of the same compound?
**A.** significantly reduced

**Q.** What about the “Lung injury (BALF cytospin and H&E lung tissue staining)” value ([1]; i.p. before and after LPS) of the same compound?
**A.** significantly reduced

**Q.** And the “Dose from which a diuretic effect is exhibited” value (C57BL/6N mice)?
**A.** ≥ 0.01 mg/kg

Source: patent US20240287042A1, “NOVEL COMPOUND HAVING INHIBITORY ACTIVITY AGAINST PENDRIN, AND PHARMACEUTICAL USES THEREOF” (UIF (University Industry Foundation), Yonsei University, priority 2021, published 2024)
